Measurements taken from ChEMBL document CHEMBL5518193, “Discovery of N-alkyl-N-benzyl thiazoles as novel TRPC antagonists for the treatment of glioblastoma multiforme” (Eur J Med Chem, 2024).

Tests used:
[1] = target: T1, Short transient receptor potential channel 6 (Mus musculus, UniProt Q61143); assay: Antagonist activity at mouse TRPC6 stably expressed in HEK293 cells inhibition of calcium influx by calcium fluorescence assay; assay type: cell-based
T1 sequence (Q61143 whole entry): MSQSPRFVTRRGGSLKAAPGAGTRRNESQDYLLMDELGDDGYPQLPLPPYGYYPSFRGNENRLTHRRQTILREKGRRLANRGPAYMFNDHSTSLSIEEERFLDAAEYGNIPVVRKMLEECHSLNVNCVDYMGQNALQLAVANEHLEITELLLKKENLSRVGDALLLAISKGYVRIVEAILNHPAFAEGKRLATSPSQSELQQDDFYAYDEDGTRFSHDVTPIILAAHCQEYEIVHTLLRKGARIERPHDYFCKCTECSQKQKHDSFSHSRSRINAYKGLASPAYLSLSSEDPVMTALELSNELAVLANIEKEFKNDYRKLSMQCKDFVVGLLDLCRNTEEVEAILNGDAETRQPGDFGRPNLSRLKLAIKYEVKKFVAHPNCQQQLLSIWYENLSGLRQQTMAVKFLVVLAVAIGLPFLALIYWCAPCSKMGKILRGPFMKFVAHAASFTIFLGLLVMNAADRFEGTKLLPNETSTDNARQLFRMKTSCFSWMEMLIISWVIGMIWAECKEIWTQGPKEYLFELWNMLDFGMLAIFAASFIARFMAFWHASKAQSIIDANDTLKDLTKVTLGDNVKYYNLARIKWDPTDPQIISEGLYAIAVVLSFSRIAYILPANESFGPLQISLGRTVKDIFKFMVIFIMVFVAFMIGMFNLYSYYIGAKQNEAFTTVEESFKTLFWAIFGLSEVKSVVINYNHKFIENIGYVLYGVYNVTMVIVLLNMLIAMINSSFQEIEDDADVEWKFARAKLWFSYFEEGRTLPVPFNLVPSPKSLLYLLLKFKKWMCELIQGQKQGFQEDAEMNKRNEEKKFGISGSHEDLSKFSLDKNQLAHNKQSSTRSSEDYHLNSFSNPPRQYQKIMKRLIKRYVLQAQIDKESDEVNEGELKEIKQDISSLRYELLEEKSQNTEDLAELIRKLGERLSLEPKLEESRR

[2] = Selectivity index, ratio of IC50 for human MKN-45 cells to IC50 for human U87 cells; assay type: functional
[3] = Selectivity index, ratio of IC50 for human HCT-116 cells to IC50 for human U87 cells; assay type: functional
[4] = Tmax in BALB/c mouse at 12.5 mg/kg, ip administered as liposome encapsulated form measured upto 24 hrs by LC-MS/MS analysis; assay type: ADME, organism-based; settings: in vivo
[5] = AUC (0 to infinity) in BALB/c mouse at 12.5 mg/kg, ip administered as liposome encapsulated form and measured upto 24 hrs by LC-MS/MS analysis; assay type: ADME, organism-based; settings: in vivo
U-87 MG = assay: Antitumor activity against human U87 cells xenografted in BALB/c nude mouse assessed as tumor growth inhibition at 12.5 mg/kg/day administered as liposome encapsulated form for 15 days and measured every 3 days by vernier caliper; assay type: functional, U-87MG ATCC; settings: 360 h, time 15 day, read-out: TGI
[6] = target: T2, Short transient receptor potential channel 5 (Homo sapiens, UniProt Q9UL62); assay: Antagonist activity at human TRPC5 stably expressed in HEK293 cells inhibition of calcium influx by calcium fluorescence assay; assay type: cell-based
T2 sequence (Q9UL62 whole entry): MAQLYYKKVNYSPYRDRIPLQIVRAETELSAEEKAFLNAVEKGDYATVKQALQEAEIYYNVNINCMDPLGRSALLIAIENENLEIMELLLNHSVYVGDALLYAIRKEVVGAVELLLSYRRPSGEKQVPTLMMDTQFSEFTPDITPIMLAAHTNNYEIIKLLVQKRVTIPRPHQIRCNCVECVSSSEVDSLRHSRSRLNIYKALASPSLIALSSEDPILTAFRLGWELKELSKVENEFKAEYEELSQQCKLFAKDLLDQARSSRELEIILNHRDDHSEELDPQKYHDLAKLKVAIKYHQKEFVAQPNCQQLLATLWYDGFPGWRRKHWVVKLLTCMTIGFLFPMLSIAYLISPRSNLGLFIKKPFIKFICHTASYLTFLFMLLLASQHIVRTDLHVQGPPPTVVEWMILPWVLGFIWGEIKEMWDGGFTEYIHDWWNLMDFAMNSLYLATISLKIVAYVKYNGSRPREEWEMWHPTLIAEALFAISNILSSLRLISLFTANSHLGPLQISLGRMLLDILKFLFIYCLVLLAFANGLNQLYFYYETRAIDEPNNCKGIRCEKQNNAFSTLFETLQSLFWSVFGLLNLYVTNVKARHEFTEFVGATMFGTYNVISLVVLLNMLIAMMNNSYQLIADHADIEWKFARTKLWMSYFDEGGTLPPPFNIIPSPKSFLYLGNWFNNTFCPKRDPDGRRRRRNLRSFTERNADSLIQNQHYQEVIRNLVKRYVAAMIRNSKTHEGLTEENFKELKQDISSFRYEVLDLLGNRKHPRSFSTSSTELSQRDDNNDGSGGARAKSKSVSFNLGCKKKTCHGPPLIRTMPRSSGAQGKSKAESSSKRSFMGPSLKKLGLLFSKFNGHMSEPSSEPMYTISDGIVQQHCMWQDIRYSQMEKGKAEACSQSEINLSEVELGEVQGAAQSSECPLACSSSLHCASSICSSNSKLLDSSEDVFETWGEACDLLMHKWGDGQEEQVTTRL

[7] = Tmax in BALB/c mouse at 25 mg/kg, ip administered as liposome encapsulated form and measured upto 24 hrs by LC-MS/MS analysis; assay type: ADME, organism-based; settings: in vivo

Which IC50 [1] does the source give for NCCN(Cc1ccc2ccccc2c1)c1nc(C(=O)Nc2ccc(O)cc2)cs1 here?
Its IC50 is 2900 nM.

And the “Ratio IC50” value [2]?
The value was 2.

And the “Ratio IC50” value [3]?
The value was 2.

And the Tmax [4]?
Its Tmax is 4 h.

What about the AUC(0-inf) [5] of the same compound?
The AUC(0-inf) was 2790 ng·h/mL.

What about the inhibition in vivo at 12.5 mg/kg/day (U-87 MG) of the same compound?
Its inhibition in vivo at 12.5 mg/kg/day is 36.3%.

What about the IC50 [6] of the same compound?
Its IC50 is 7.6 µM.

What about the Tmax [7] of the same compound?
Its Tmax is 4 h.
